Assays:
Assay type in all cases: in vivo
[1] = tested on: cocklebur (Xanthium strumarium); experiment: Test B postemergence; conditions: 13 to 15 days
Outline: (§1)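 Ratings on a 0 to 100 visual scale (100 complete control) compare treated plants with controls 13 to 15 days after application. Treatments were pre- or postemergence sprays of compound in non-phytotoxic solvent with surfactant.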

[2] = tested on: Surinam grass (Brachiaria decumbens); experiment: Test B postemergence; conditions: 13 to 15 days
Outline: as §1

[3] = tested on: blackgrass (Alopecurus myosuroides); experiment: Test B postemergence; conditions: 13 to 15 days
Outline: as §1

[4] = tested on: pigweed (Amaranthus retroflexus); experiment: Test B postemergence; conditions: 13 to 15 days
Outline: as §1

[5] = tested on: velvetleaf (Abutilon theophrasti); experiment: Test B postemergence; conditions: 13 to 15 days
Outline: as §1

[6] = tested on: lambsquarters (Chenopodium album); experiment: Test B postemergence; conditions: 13 to 15 days
Outline: as §1

[7] = tested on: barnyardgrass (Echinochloa crus-galli); experiment: Test B postemergence; conditions: 13 to 15 days
Outline: as §1

[8] = tested on: morning glory (Ipomoea hederacea); experiment: Test B postemergence; conditions: 13 to 15 days
Outline: as §1

corn (Zea mays) [9] = experiment: Test B postemergence; conditions: 13 to 15 days
Outline: as §1

[10] = tested on: wheat (Triticum aestivum); experiment: Test B postemergence; conditions: 13 to 15 days
Outline: as §1

[11] = tested on: giant foxtail (Setaria faberii); experiment: Test B postemergence; conditions: 13 to 15 days
Outline: as §1

wild oat (Avena fatua) = experiment: Test B postemergence; conditions: 13 to 15 days
Outline: as §1

[12] = tested on: crabgrass (Digitaria sanguinalis); experiment: Test B postemergence; conditions: 13 to 15 days
Outline: as §1

[13] = tested on: duck salad (Heteranthera limosa); experiment: Test C flooded paddy test; conditions: for Ducksalad plant response rating: Flooded Paddy, scale 0 to 100, 0 no effect, 100 complete control; for Plant response rating, Ducksalad: flooded paddy test, scale 0 to 100 (0 no effect, 100 complete control)
Outline: (§2)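 Plants were grown to the 2-leaf stage under flooded paddy conditions and treated. They were then kept in a greenhouse for 12 to 14 days and visually rated against untreated controls on a 0–100 scale, where 0 is no effect and 100 is complete control.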

[14] = tested on: barnyardgrass (Echinochloa crus-galli); experiment: Test C flooded paddy test; conditions: for Barnyardgrass plant response rating: Flooded Paddy, scale 0 to 100, 0 no effect, 100 complete control; for Plant response rating, Barnyardgrass: flooded paddy test, scale 0 to 100 (0 no effect, 100 complete control)
Outline: as §2

[15] = tested on: smallflower flatsedge (Cyperus difformis); experiment: Test C flooded paddy test; conditions: for Flatsedge plant response rating: Flooded Paddy, scale 0 to 100, 0 no effect, 100 complete control; for Plant response rating, Flatsedge: flooded paddy test, scale 0 to 100 (0 no effect, 100 complete control)
Outline: as §2

rice (Oryza saliva) [16] = experiment: Test C flooded paddy test; conditions: for Rice plant response rating: Flooded Paddy, scale 0 to 100, 0 no effect, 100 complete control; for Plant response rating, Rice: flooded paddy test, scale 0 to 100 (0 no effect, 100 complete control)
Outline: as §2

[17] = tested on: cocklebur (Xanthium strumarium); experiment: Test B preemergence; conditions: scale 0 to 100, 0 no effect, 100 complete control
Outline: as §1

[18] = tested on: Surinam grass (Brachiaria decumbens); experiment: Test B preemergence
Outline: as §1

[19] = tested on: pigweed (Amaranthus retroflexus); experiment: Test B preemergence
Outline: as §1

[20] = tested on: velvetleaf (Abutilon theophrasti); experiment: Test B preemergence
Outline: as §1

[21] = tested on: lambsquarters (Chenopodium album); experiment: Test B preemergence
Outline: as §1

[22] = tested on: barnyardgrass (Echinochloa crus-galli); experiment: Test B preemergence
Outline: as §1

[23] = tested on: morning glory (Ipomoea hederacea); experiment: Test B preemergence
Outline: as §1

corn (Zea mays) [24] = experiment: Test B preemergence
Outline: as §1

[25] = tested on: giant foxtail (Setaria faberii); experiment: Test B preemergence
Outline: as §1

rice (Oryza saliva) [26] = experiment: Test B preemergence
Outline: as §1

[27] = tested on: crabgrass (Digitaria sanguinalis); experiment: Test B preemergence
Outline: as §1

[28] = tested on: duck salad (Heteranthera limosa); experiment: Test B flooded paddy test; conditions: Rate 1000 g/ha, scale of 0 to 100 where 0 is no effect and 100 is complete control, visually evaluated after 13 to 15 days
Outline: (§3)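 Treatment: formulated chemical applied to flooded paddy plants at 2-leaf stage. Hold: greenhouse, 13–15 days. Scoring: visual comparison to controls, 0 (no effect) to 100 (complete control).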

[29] = tested on: barnyardgrass (Echinochloa crus-galli); experiment: Test B flooded paddy test; conditions: Rate 1000 g/ha, scale of 0 to 100 where 0 is no effect and 100 is complete control, visually evaluated after 13 to 15 days
Outline: as §3

[30] = tested on: smallflower flatsedge (Cyperus difformis); experiment: Test B flooded paddy test; conditions: Rate 1000 g/ha, scale of 0 to 100 where 0 is no effect and 100 is complete control, visually evaluated after 13 to 15 days
Outline: as §3

rice (Oryza saliva) [31] = experiment: Test B flooded paddy test; conditions: Rate 1000 g/ha, scale of 0 to 100 where 0 is no effect and 100 is complete control, visually evaluated after 13 to 15 days
Outline: as §3

[32] = Rate 125 g/ha, scale 0 (no effect) to 100 (complete control)
[33] = Rate 500 g/ha, scale 0 to 100, 0 is no effect, 100 is complete control
[34] = Preemergence, Rate 500 g/ha, scale 0 to 100, 0 no effect, 100 complete control
[35] = preemergence, Rate 125 g/ha, scale 0 to 100, 0 no effect, 100 complete control
[36] = preemergence, Rate 125 g/ha, scale of 0 to 100 where 0 is no effect and 100 is complete control, 13 to 15 days

CC(C)c1ccn(C2SCN(c3cccc(C(F)(F)F)c3)C2=O)n1 (stereo not drawn) [Compound 23]
20: Plant response rating, Surinam grass [2, 32] | Plant response rating, Surinam grass [2, 33] | Plant response rating, Blackgrass [3, 33] | Plant response rating, Velvetleaf [5, 32] | Plant response rating, Barnyardgrass [7, 32] | Plant response rating, Morningglory [8, 32] | Plant response rating, Corn (corn (Zea mays) [9]; [32]) | Plant response rating, Foxtail, Giant [11, 32] | Plant response rating, Crabgrass [12, 32] | Plant response rating, Rice (rice (Oryza saliva) [16]; Rate 62 g/ha) | Plant response rating, Rice (rice (Oryza saliva) [16]; Rate 125 g/ha) | Plant response rating, Cocklebur ([17]; Preemergence, Rate 500 g/ha) | Plant response rating, Surinam grass [18, 34]
70: Plant response rating, Pigweed [4, 32] | Rice plant response rating (rice (Oryza saliva) [16]; Rate 250 g/ha) | Plant response rating, Crabgrass [27, 35]
40: Plant response rating, Cocklebur [1, 32] | Plant response rating, Crabgrass [12, 33]
50: Plant response rating, Corn (corn (Zea mays) [9]; [33]) | Plant response rating, Ducksalad ([13]; Rate 62 g/ha) | Plant response rating, Foxtail, Giant [25, 34] | Plant response rating, Foxtail, Giant [25, 35]
80: Plant response rating, Cocklebur [1, 33] | Plant response rating, Lambsquarters [6, 32] | Plant response rating, Morningglory [8, 33] | Plant response rating, Foxtail, Giant [11, 33] | Plant response rating, Ducksalad ([13]; Rate 125 g/ha) | Plant response rating, Barnyardgrass ([14]; Rate 62 g/ha) | Plant response rating, Barnyardgrass ([14]; Rate 125 g/ha)
30: Plant response rating, Velvetleaf [5, 33] | Plant response rating, Rice (rice (Oryza saliva) [26]; [34])
90: Plant response rating, Barnyardgrass [7, 33]
100: Plant response rating, Pigweed [4, 33] | Plant response rating, Lambsquarters [6, 33] | Ducksalad plant response rating ([13]; Rate 250 g/ha) | Ducksalad plant response rating ([13]; Rate 500 g/ha) | Barnyardgrass plant response rating ([14]; Rate 250 g/ha) | Barnyardgrass plant response rating ([14]; Rate 500 g/ha) | Flatsedge plant response rating ([15]; Rate 250 g/ha) | Flatsedge plant response rating ([15]; Rate 500 g/ha) | Plant response rating, Flatsedge ([15]; Rate 62 g/ha) | Plant response rating, Flatsedge ([15]; Rate 125 g/ha) | Rice plant response rating (rice (Oryza saliva) [16]; Rate 500 g/ha) | Plant response rating, Pigweed [19, 34] | Plant response rating, Pigweed [19, 35] | Plant response rating, Lambsquarters [21, 34] | Plant response rating, Lambsquarters [21, 35] | Plant response rating, Barnyardgrass [22, 34] | Plant response rating, Crabgrass [27, 34] | Plant response rating, Ducksalad [28]
60: Plant response rating, Morningglory [23, 34]
0: Plant response rating, Blackgrass [3, 32] | Plant response rating, Wheat [10, 32] | Plant response rating, Wheat [10, 33] | Plant response rating, Wild Oat (wild oat (Avena fatua); [32]) | Plant response rating, Wild Oat (wild oat (Avena fatua); [33]) | Plant response rating, Cocklebur ([17]; preemergence, Rate 125 g/ha) | Plant response rating, Surinam grass [18, 35] | Plant response rating, Velvetleaf [20, 34] | Plant response rating, Velvetleaf [20, 35] | Plant response rating, Barnyardgrass [22, 35] | Plant response rating, Morningglory [23, 35] | Plant response rating, Corn (corn (Zea mays) [24]; [34]) | Plant response rating, Corn (corn (Zea mays) [24]; [35]) | Plant response rating, Rice (rice (Oryza saliva) [26]; [35]) | Plant response rating, Barnyardgrass [29] | Plant response rating, Flatsedge [30] | Plant response rating, Rice (rice (Oryza saliva) [31])

Cc1cc(N2CCC(n3ccc(C(C)(C)C)n3)C2=O)ccc1Cl (stereo not drawn) [Compound 53]
0: Plant response rating, Cocklebur [1, 32] | Plant response rating, Cocklebur [1, 33] | Plant response rating, Surinam grass [2, 32] | Plant response rating, Surinam grass [2, 33] | Plant response rating, Blackgrass [3, 32] | Plant response rating, Blackgrass [3, 33] | Plant response rating, Velvetleaf [5, 32] | Plant response rating, Velvetleaf [5, 33] | Plant response rating, Barnyardgrass [7, 32] | Plant response rating, Barnyardgrass [7, 33] | Plant response rating, Morningglory [8, 32] | Plant response rating, Corn (corn (Zea mays) [9]; [32]) | Plant response rating, Wheat [10, 32] | Plant response rating, Wheat [10, 33] | Plant response rating, Foxtail, Giant [11, 32] | Plant response rating, Foxtail, Giant [11, 33] | Plant response rating, Wild Oat (wild oat (Avena fatua); [32]) | Plant response rating, Wild Oat (wild oat (Avena fatua); [33]) | Plant response rating, Crabgrass [12, 32] | Plant response rating, Crabgrass [12, 33] | Rice plant response rating (rice (Oryza saliva) [16]; Rate 250 g/ha) | Rice plant response rating (rice (Oryza saliva) [16]; Rate 500 g/ha) | Plant response rating, Rice (rice (Oryza saliva) [16]; Rate 62 g/ha) | Plant response rating, Rice (rice (Oryza saliva) [16]; Rate 125 g/ha) | Plant response rating, Cocklebur ([17]; Preemergence, Rate 500 g/ha) | Plant response rating, Surinam grass [18, 34] | Plant response rating, Surinam grass [18, 36] | Plant response rating, Velvetleaf [20, 34] | Plant response rating, Velvetleaf [20, 36] | Plant response rating, Barnyardgrass [22, 36] | Plant response rating, Morningglory [23, 34] | Plant response rating, Morningglory [23, 36] | Plant response rating, Corn (corn (Zea mays) [24]; [34]) | Plant response rating, Corn (corn (Zea mays) [24]; [36]) | Plant response rating, Foxtail, Giant [25, 34] | Plant response rating, Foxtail, Giant [25, 36] | Plant response rating, Rice (rice (Oryza saliva) [26]; [34]) | Plant response rating, Rice (rice (Oryza saliva) [26]; [36]) | Plant response rating, Crabgrass [27, 34] | Plant response rating, Crabgrass [27, 36]
50: Ducksalad plant response rating ([13]; Rate 250 g/ha)
70: Barnyardgrass plant response rating ([14]; Rate 250 g/ha)
80: Plant response rating, Pigweed [4, 32] | Plant response rating, Lambsquarters [6, 33] | Plant response rating, Flatsedge ([15]; Rate 62 g/ha)
100: Barnyardgrass plant response rating ([14]; Rate 500 g/ha) | Flatsedge plant response rating ([15]; Rate 500 g/ha) | Plant response rating, Pigweed [19, 34] | Plant response rating, Pigweed [19, 36] | Plant response rating, Lambsquarters [21, 34] | Plant response rating, Lambsquarters [21, 36] | Plant response rating, Barnyardgrass [29]
60: Ducksalad plant response rating ([13]; Rate 500 g/ha)
90: Plant response rating, Pigweed [4, 33] | Flatsedge plant response rating ([15]; Rate 250 g/ha) | Plant response rating, Flatsedge ([15]; Rate 125 g/ha) | Plant response rating, Barnyardgrass [22, 34] | Plant response rating, Flatsedge [30]
40: Plant response rating, Lambsquarters [6, 32] | Plant response rating, Ducksalad ([13]; Rate 125 g/ha)
20: Plant response rating, Ducksalad ([13]; Rate 62 g/ha) | Plant response rating, Barnyardgrass ([14]; Rate 62 g/ha) | Plant response rating, Rice (rice (Oryza saliva) [31])
10: Plant response rating, Morningglory [8, 33] | Plant response rating, Corn (corn (Zea mays) [9]; [33])
30: Plant response rating, Barnyardgrass ([14]; Rate 125 g/ha) | Plant response rating, Ducksalad [28]

Reference: patent US7138361B2, “Herbicidal heterocycles” (E. I. du Pont de Nemours and Company, priority 2000, dated 2006)
